From publication PMC4684281, “Antitumor Effects and Mechanism of Novel Emodin Rhamnoside Derivatives against Human Cancer Cells In Vitro” (PLoS ONE, 2015)
“And” between values parts separate entries of the source, which are not always exact repeats. Equal entries are not always repeated. Where two headings read alike, the source gives them in different places.

How the values were obtained:
[1] = test system: L02 normal liver cells; test: MTT cell viability assay, L02; format: cell-based; details: Homo sapiens; MTT at 72h, n=3, mean±S.E.M; read-out: IC50 for EM-d-Rha, L02
Procedure: (§1) The viability of cancer cells was evaluated by MTT assay. Briefly, cells were inoculated in 96-well culture plates at the density of 1×10^4/well with complete medium containing 10% fetal calf serum in a final volume of 0.2 mL. Cells were incubated at 37°C for at least 24 hours to allow optimal attachment. When the cells reached 60% confluence, they were treated with Cisplatin, HCPT and emodin rhamnopyranosides derivatives in various concentrations, and incubated in a humidity-controlled 5%CO2 incubator at 37°C for 72 hours. Medium were exchanged once every 24 hours. Cell control group and blank group were set up in the same manner, with each group having six parallel wells. Cell survival was assessed by directly adding 22 μL of 5mg/mL MTT to 0.2 mL medium. After three hours, the formazan precipitate was dissolved in 200μL isopropanol per well, and completely mixed under room temperature. Afterwards, the optical density of each well was detected at 570 nm wavelength by iMark microplate reader (Bio-rad,USA). This experiment was repeated at least three times.

[2] = test system: HepG2 cells; test: Flow cytometry apoptosis analysis (Annexin V/7-AAD), HepG2; format: cell-based, Human; details: 48h (Fig 7 legend: 72h); for Early apoptosis: control 6.16±2.20; for Late apoptosis: control 10.71±1.42; for Living cell: control 79.87±1.84
Procedure: Flow cytometry analysis was determined using Annexin V-APC/7-AAD Apoptosis Detection Kit (BD Parmagen, U.S.A). HepG2 cells were inoculated at a density of 3×10^5/well in 6-well plates, and allowed to attach at 37°C for 24 hours. Afterwards, cells were treated with specific concentration EM-d-Rha, and cultured and harvested as described previously. Cells of each sample were resuspended in […] cold binding buffer before adding 2.5μL Annexin V-APC conjugate and 5μL 7-AAD solution. Then cells were incubated for 15 min on ice in the dark. Cell suspension was diluted to a final volume of 250μL with ice-cold, 1× Annexin V Binding Buffer. The assay was conducted by flow cytometry (BD FACSCalibur,USA). Scatter plots were generated using Cell Quest pro software (BD Biosciences, San Jose, CA). The experiment was repeated three times.

[3] = test system: MCF-7 cells; test: MTT cell viability assay, MCF-7; format: cell-based; details: Homo sapiens, MCF7
Procedure: as §1

[4] = test system: Cyto C gene expression of HepG2 cells; test: RT-qPCR gene expression, Cytochrome C; format: cell-based, Human; details: 48 hours, control 1.030±0.280
Procedure: HepG2 cells were inoculated in 6-well culture plates at a density of 3×10^5 cells/well, and allowed to attach at 37°C for 24 hours. Then cells were treated with specific concentrations of EM-d-Rha and incubated in a humidified incubator supplied with 5% CO2 at 37°C for 48 hours. Medium were changed once every 24 hours. Afterwards, mRNA was extracted from every group using E.Z.N.A.^TM Total RNA Kit II according to the manufacturer’s instructions. The extracted mRNA was dissolved in 20 μL ddH2O (Qiagen) containing diethyl pyrocarbonate (DEPC). The concentration of mRNA was quantified with a NanoDrop ND-100 device (Thermo Fisher Scientific). cDNA was synthesized using 3μg of the extracted mRNA from each sample with PCR system (BIO-RAD,USA). The cDNA synthesis reaction was prepared according to the manufacturer’s instructions by mixing 3μg mRNA, 4.0μL 5× MMLV buffer, 3 μL oligodT18, 0.5μL 10 mM dNTP solution, 0.8μL RNase inhibitor, 3.7μL MMLV Rtase, and 6.0μL DEPC ddH2O in PCR tubes. The reaction condition was 5min at 70°C, 60 min at 42°C and 10min at 4°C. The products were used for subsequent RT-qPCR analysis. The level of mRNA expression was measured by RT-qPCR using a CFX96^TM C1000 Real-Time PCR System (BIO-RAD, USA).The primers were designed using idt.dna software system (http //www.idtdna.com). The specific primers were: Cyto C: 5′-[…]-3′ (forward), 5′- […] -3′ (reverse); Caspase 3: 5′- CCTACAGCCCATTTC TCCATAC-3′ (forward), 5′-[…]-′ (reverse); β-actin: 5′-[…]-3′ (forward), 5′-[…]-3′ (reverse). The product sizes of Cyto C, Caspase 3 and β-actin were 91bp, 125bp and 107bp, respectively. The PCR reaction was performed in a final volume of 20μL using an optical 96-well tray. The reaction mixture consisted of 10μL of SYBR I green Mix/ GoTaq®qPCR
Master Mix (Promega), 0.3μL of each primer (10μM), and 1.0 μL cDNA template. PCR cycling condition was one cycle of 5min at 95°C, 39 cycles and each of which was consisted of 15 seconds at 95°C, 15 seconds at 62°C and 30 seconds at 72°C, with final extension at 60°C for 5 Seconds. The thermal melt parameter was investigated to assess the homogeneity of PCR. Each sample was analyzed in quadruplicate and mean was used for further analysis. The mRNA expression levels of each sample were quantified by measuring the threshold cycle (CT) values of genes. The relative values of the target gene expression were calculated according to CT values of the target genes and the reference gene (β-actin) by applying Livak and Schmittgen method. That is, it equals to 2^-Δ ΔCT, ΔCT equals the mean of Ct for target gene minus the mean of Ct for β-actin gene, and ΔΔCT equals ΔCT of the treated group minus ΔCT of the control group.

[5] = test system: HeLa cells; test: MTT cell viability assay, HeLa; format: cell-based, Human
Procedure: as §1

[6] = HepG2, 10μM, listed as EM-d-Rha

Q: How did the IC50 [1] turn out when `CC(=O)O[C@@H]1[C@@H](O[C@@H]2O[C@@H](C)[C@H](O)[C@@H](OC(C)=O)[C@H]2OC(C)=O)[C@H](C)O[C@@H](Oc2cc(O)c3c(c2)C(=O)c2cc(C)cc(O)c2C3=O)[C@@H]1OC(C)=O` [S-8, 3-(2”,3”-Di-O-acetyl-α-L-rhamnopyranosyl-(1→4)-2’,3’-di-O-acetyl-α-L-rhamnopyranosyl)-emodin] was run?
A: The IC50 was 19.7 ± 1.7 µM.

Q: And the Early apoptosis ([2]; HepG2, 2.5μM)?
A: The Early apoptosis was 40.40±5.70 %.

Q: And the Late apoptosis ([2]; HepG2, 2.5μM)?
A: The Late apoptosis was 7.50±1.04%.

Q: And the Living cell ([2]; HepG2, 2.5μM)?
A: Its Living cell is 51.20±5.10 %.

Q: And the Early apoptosis ([2]; HepG2, 5μM)?
A: The Early apoptosis was 45.20±4.17 %.

Q: What about the Late apoptosis ([2]; HepG2, 5μM) of the same compound?
A: The Late apoptosis was 17.53±3.16%.

Q: What about the Living cell ([2]; HepG2, 5μM) of the same compound?
A: The Living cell was 36.40±3.23 %.

Q: What about the Early apoptosis [2, 6] of the same compound?
A: Its Early apoptosis is 78.77% and 78.77±1.22 %.

Q: What about the Late apoptosis ([2]; HepG2, 10μM) of the same compound?
A: The Late apoptosis was 4.22±1.63%.

Q: What about the Living cell [2, 6] of the same compound?
A: Its Living cell is 16.53% and 16.53±0.68 %.

Q: What about the inhibition at 0.1 µM ([3]; MCF-7, 0.1μM, MTT 72h, read-out: The inhibition rate of EM-d-Rha) of the same compound?
A: Its inhibition at 0.1 µM is 16.8 ± 1.4%.

Q: And the inhibition at 0.5 µM ([3]; MCF-7, 0.5μM, MTT 72h, read-out: The inhibition rate of EM-d-Rha)?
A: Its inhibition at 0.5 µM is 20.1 ± 3.83%.

Q: And the inhibition at 2.5 µM ([3]; MCF-7, 2.5μM, MTT 72h, read-out: The inhibition rate of EM-d-Rha)?
A: Its inhibition at 2.5 µM is 41.4 ± 6.53%.

Q: And the inhibition at 12.5 µM ([3]; MCF-7, 12.5μM, MTT 72h, read-out: The inhibition rate of EM-d-Rha)?
A: The inhibition at 12.5 µM was 62.7 ± 6.81%.

Q: What about the inhibition at 62.5 µM ([3]; MCF-7, 62.5μM, MTT 72h, read-out: The inhibition rate of EM-d-Rha) of the same compound?
A: Its inhibition at 62.5 µM is 77.1 ± 5.1%.

Q: And the IC50 ([3]; MTT at 72h, n=3, mean±S.E.M, read-out: IC50 for EM-d-Rha, MCF-7)?
A: Its IC50 is 8.56 ± 1.04 µM.

Q: And the “Cytochrome C mRNA expression level relative to controls” value ([4]; HepG2, 0.70μM)?
A: Its value is 1.009±0.475 fold.

Q: What about the “Cytochrome C mRNA expression level relative to controls” value ([4]; HepG2, 1.40μM) of the same compound?
A: Its value is 1.086±0.727 fold.

Q: And the “Cytochrome C mRNA expression level relative to controls” value ([4]; HepG2, 2.80μM, listed as EM-d-Rha)?
A: Its value is 3.258±2.402 fold.

Q: What about the “Cytochrome C mRNA expression level relative to controls” value ([4]; HepG2, 5.60μM) of the same compound?
A: The value was 5.625±4.950 fold.

Q: What about the IC50 ([5]; Homo sapiens, HeLa, MTT at 72h, n=3, mean±S.E.M, read-out: IC50 for EM-d-Rha, HeLa) of the same compound?
A: Its IC50 is 1510 ± 310 nM.

Q: What about the IC50 ([5]; Homo sapiens, HeLa, MTT, 72 hours, read-out: IC50 values, HeLa) of the same compound?
A: The IC50 was 1.15 µg/mL.

Q: What about the inhibition at 0.1 µM ([5]; Homo sapiens, HeLa, 0.1μM, MTT 72h, read-out: The inhibition rate of EM-d-Rha) of the same compound?
A: Its inhibition at 0.1 µM is 14.8 ± 5.61%.

Q: And the inhibition at 0.5 µM ([5]; Homo sapiens, HeLa, 0.5μM, MTT 72h, read-out: The inhibition rate of EM-d-Rha)?
A: The inhibition at 0.5 µM was 37.6 ± 2.81%.

Q: And the inhibition at 2.5 µM ([5]; Homo sapiens, HeLa, 2.5μM, MTT 72h, read-out: The inhibition rate of EM-d-Rha)?
A: Its inhibition at 2.5 µM is 49.2 ± 3.78%.

Q: And the inhibition at 12.5 µM ([5]; Homo sapiens, HeLa, 12.5μM, MTT 72h, read-out: The inhibition rate of EM-d-Rha)?
A: The inhibition at 12.5 µM was 69.1 ± 3.36%.

Q: What about the inhibition at 62.5 µM ([5]; Homo sapiens, HeLa, 62.5μM, MTT 72h, read-out: The inhibition rate of EM-d-Rha) of the same compound?
A: The inhibition at 62.5 µM was 89.74 ± 0.63%.

Q: What about the “Decrease of IC50 compared to the IC50 of emodin, HeLa” value ([5]; from Table 1) of the same compound?
A: Its value is 10.56 fold.
